Patent US5298491A, “Derivatives of endogenous mediators, their salts, method of preparation, applications and compositions in which they are present” (priority 1990, dated 1994)
“Also recorded” adds a separate entry of the source. Where two headings read alike, the source gives them in different places.

Tests used:
[1] = system: receptor binding sites with a high affinity for serotonin (5-HT1); assay: Displacement, by the derivatives S-CM-R, of the high affinity binding of [3H]5-HT in rat brain sections; conditions: 2 nM [3H]5-HT
Source text: The distribution of the receptor binding sites with a high affinity for serotonin (5-HT1) is heterogeneous in the central nervous system of the rat (Pazos and Palacios, Brain Research, 346, 1985, p. 205-230; Segu et al., Brain Research, 384, 1986, p. 205-217). Furthermore, the content of subtypes of 5-HT1 sites varies according to the anatomical structure in question.
The protocol for preparing the brain sections is common to all the studies which follow. The animals are decapitated after anaesthesia with chloral hydrate (400 mg/kg of gross weight). The brains are quickly removed from the skull and frozen by immersion in isopentane cooled by liquid nitrogen. 20 μm sections, prepared in a cryostat at -20° C., are mounted on gelatin-coated slides and stored at -20° C.
The sections are preincubated for 1 hour at 4° C. in a Krebs solution (NaCl 118 mM; KCl 4.8 mm; CaCl2 1.2 mM; MgCl2 1.2 mM; Tris-HCl 15 mM, pH 7.4) in order to remove the endogenous ligands.
1. Displacement, by the derivatives S-CM-R, of the high affinity binding of serotonin in rat brain sections
The incubations take place for 60 minutes at 20° C. in a Krebs solution containing 10 μM pargyline, 5.7.10^-4 M ascorbic acid, 2 nM [^3 H]5-HT (NEN, As=30 Ci/mmol) and increasing concentrations of derivatives S-CM-R. The non-specific binding is determined on homothetic sections under the same conditions, but in the presence of 10^-5 M 5-HT.
After incubation, the sections are rinsed three times for 20 seconds in distilled water and dried by a stream of hot air. The sections are affixed to a film (Amersham) for 6 weeks in the presence of a standard ([^3 H] microscale, Amersham). The films are developed for 6 minutes with Kodak D19, rinsed and fixed with AL4 (Kodak). Quantitative analysis of the autoradiographs is performed with an image analysis system (Segu et al., J. Neurosci. Methods, 31, 1990, p. 197-208).

5-HT1D sites [2] = molecular target: T1, 5-HT1D sites (Macaca mulatta, UniProt F6SFA9); assay: Displacement of S-CM-G[125I]TNH2 binding with serotonin in monkey brain sections; design: species or system monkey (Macacca mulatta n.); conditions: displacement of 0.02 nM S-CM-G[125I]TNH2, read-out: IC50 (concentration which inhibits 50% of the binding)
T1 construct: The right hemisphere is cut out and frozen by isopentane cooled in liquid nitrogen; from tissue; host or cells: rhesus monkey brain sections (right hemisphere, 10 μm, frozen), substantia nigra
Method: (§1) A male monkey (Macacca mulatta n.) weighing 8 kg was sacrificed by means of an overdose of barbiturates and exsanguination. […] The right hemisphere is cut out and frozen by isopentane cooled in liquid nitrogen. The block is stored at -20° C. 10 μm thick sections are prepared in a cryostat at -20° C. and placed on gelatin-coated slides (Segu et al., 1990, J. Neurosci. Meth., 31, 197). They are stored at -20° C. until required.
(§2) The sections are preincubated for 1 h at 4° C. in a Krebs solution (mM: NaCl, 118; KCl, 4.5; CaCl2, 1.2; MgCl2, […]; Tris, 15; pH 7.4) in order to remove the endogenous ligands. They are then incubated at 20° C. for 60 minutes in a solution containing 10^-5 M pargyline, 57 mM ascorbic acid, 10 g/l of bovine serum albumin and 0.02 nM S--CM-G[^125 I]TNH2, alone or in the presence of increasing concentrations of serotonin. Some of the sections are incubated under identical conditions except that the radioactive probe is replaced either with 2 nM [^3 H]5-HT, or with 2 nM [^3 H]5-HT in the presence of 100 nM 8-hydroxy-2-[di-N-propylamino]tetralin (8-OH-DPAT) and 100 nM mesulergin, or with 1 nM [^3 H]8-OH-DPAT. After rinsing 2 x for 1 minute in distilled water, the sections are dried.
(§3) The slides are affixed to a tritium-sensitive film for 8 days. […] The autoradiographs are quantified with a video system for image analysis (Segu et al., 1990).

[3] = Passage across the blood-brain barrier after intracardiac injection (brain autoradiography); format: in vivo, mice and guinea-pigs; conditions: intracardiac injection; 10 minutes; conclusion
Method: 2 mice and 2 guinea-pigs are deeply anaesthetized with chloral hydrate (intraperitoneal injection of 0.12 ml of a 35% solution per 100 g of body weight).
The mice and guinea-pigs receive intracardiac injections of 200 μl and 1.5 ml, respectively, of S--CM-G[^125 I]TNH2.
After 10 minutes, the animals, still under deep anaesthesia, are decapitated and the brains are frozen and stored as indicated in Example 1.
Sections are prepared and autoradiography is carried out as described in Example 1.

5-HT1D sites [4] = assay: Labelling of substantia nigra in monkey brain sections (autoradiography); format: binding, monkey (Macacca mulatta n.); conditions: 1 nM [3H]8-OH-DPAT
Method: (§4) A male monkey (Macacca mulatta n.) weighing 8 kg was sacrificed by means of an overdose of barbiturates and exsanguination. […] The right hemisphere is cut out and frozen by isopentane cooled in liquid nitrogen. The block is stored at -20° C. […] They are stored at -20° C. until required.
(§5) Some of the sections are incubated under identical conditions except that the radioactive probe is replaced either with 2 nM [^3 H]5-HT, or with 2 nM [^3 H]5-HT in the presence of 100 nM 8-hydroxy-2-[di-N-propylamino]tetralin (8-OH-DPAT) and 100 nM mesulergin, or with 1 nM [^3 H]8-OH-DPAT. After rinsing 2 x for 1 minute in distilled water, the sections are dried.
(§6) The slides are affixed to a tritium-sensitive film for 8 days. The film is developed for 6 minutes in D19, rinsed and fixed.

5-HT1A sites = molecular target: T2, 5-HT1A sites (Macaca mulatta, UniProt F7GIU0); assay: Labelling of hippocampus in monkey brain sections (autoradiography); format: binding, monkey (Macacca mulatta n.)
T2 sequence (F7GIU0 1-421): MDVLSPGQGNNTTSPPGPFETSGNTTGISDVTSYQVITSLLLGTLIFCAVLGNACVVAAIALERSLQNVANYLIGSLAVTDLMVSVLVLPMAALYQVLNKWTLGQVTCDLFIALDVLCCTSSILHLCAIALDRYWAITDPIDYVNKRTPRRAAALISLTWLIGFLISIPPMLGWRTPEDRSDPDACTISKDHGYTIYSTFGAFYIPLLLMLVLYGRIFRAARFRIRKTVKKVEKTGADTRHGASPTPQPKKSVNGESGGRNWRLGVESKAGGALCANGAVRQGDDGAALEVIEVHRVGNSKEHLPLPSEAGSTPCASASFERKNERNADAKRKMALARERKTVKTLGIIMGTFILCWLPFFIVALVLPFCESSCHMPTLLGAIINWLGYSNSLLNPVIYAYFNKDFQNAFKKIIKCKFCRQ
Method: as §1, §2, §3

5-HT1D sites [5] = molecular target: T1, 5-HT1D sites; assay: Labelling of substantia nigra in monkey brain sections (autoradiography); format: binding, monkey (Macacca mulatta n.)
Method: as §4, §5, §6

[6] = 60 min at 20° C, single IC50, read-out: IC50 (displacement of specific binding of [3H]5-HT)
[7] = two-phase process, first site, read-out: IC50 for the first site (displacement of [3H]5-HT)
[8] = two-phase process, second site, read-out: IC50 for the second site (displacement of [3H]5-HT)

T1 sequence (F6SFA9 1-390): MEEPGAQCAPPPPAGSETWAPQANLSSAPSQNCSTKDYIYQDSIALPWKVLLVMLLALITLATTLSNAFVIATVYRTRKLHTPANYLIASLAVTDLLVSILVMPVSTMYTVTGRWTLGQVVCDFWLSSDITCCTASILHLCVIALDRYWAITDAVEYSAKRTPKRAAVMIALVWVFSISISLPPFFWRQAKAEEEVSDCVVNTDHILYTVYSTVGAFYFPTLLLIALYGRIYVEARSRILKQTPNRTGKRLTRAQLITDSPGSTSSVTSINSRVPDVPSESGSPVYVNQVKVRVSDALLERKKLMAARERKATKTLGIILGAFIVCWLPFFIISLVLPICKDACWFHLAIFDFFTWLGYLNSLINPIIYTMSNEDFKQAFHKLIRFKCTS

## NCCc1c[nH]c2ccc(O)cc12 [5-HT, reference compound]
[1]
  phases of displacement of [3H]5-HT specific binding: one-phase process
[1]; [6]
  IC50: 2 nM
5-HT1D sites [2]
  IC50: ~5 nM

## NCCc1c[nH]c2ccc(OCC(=O)O)cc12 [S--CM]
[1]; [6]
  IC50: 1000 nM

## NCCc1c[nH]c2ccc(OCC(=O)NCC(=O)N[C@@H](Cc3ccc(O)cc3)C(N)=O)cc12 [S-CM-GTNH2, tryptamine-5-O-carboxymethylglycyltyrosinamide]
[3]
  passage across the blood-brain barrier: unable to pass through the blood-brain barrier
[1]
  phases of displacement of [3H]5-HT specific binding: two-phase process
[1]; [7]
  IC50: 20 nM
[1]; [8]
  IC50: 400 nM

## NCCc1c[nH]c2ccc(OCC(=O)N[C@@H](Cc3ccc(O)cc3)C(=O)NCC(N)=O)cc12 [S-CM-Tyr-GlyNH2]
[1]
  phases of displacement of [3H]5-HT specific binding: two-phase process
[1]; [7]
  IC50: 20 nM
[1]; [8]
  IC50: 400 nM

## CCCN(CCC)C1CCc2cccc(O)c2C1 (stereo not shown) [[^3 H]8-OH-DPAT, 8-hydroxy-2-[di-N-propylamino]tetralin]
5-HT1D sites [4]
  labelling of the substantia nigra: not the substantia nigra
5-HT1A sites; 1 nM [3H]8-OH-DPAT
  labelling of the hippocampus: intense labelling; also recorded: showing the 5-HT1A sites exclusively located in the hippocampus

## [^3 H]5-HT [reference compound]
5-HT1D sites [5]; 2 nM [3H]5-HT
  labelling of the substantia nigra: substantial labelling; also recorded: showing the total 5-HT1 sites in the hippocampus (H) and the substantia nigra (SN)
5-HT1D sites [5]; 2 nM [3H]5-HT in the presence of 100 nM 8-OH-DPAT and 100 nM mesulergin
  labelling of the substantia nigra: strong reaction with the substantia nigra; also recorded: showing the 5-HT1B sites virtually exclusively located in "the substantia nigra
5-HT1A sites; 2 nM [3H]5-HT
  labelling of the hippocampus: substantial labelling; also recorded: showing the total 5-HT1 sites in the hippocampus (H)
